US11124785B2, “Rothia subtilisins, S8A family proteases, as therapeutic enzymes for application in gluten intolerance disorders” (TRUSTEES OF BOSTON UNIVERSITY, priority 2016, dated 2021)

Assays:
[1] = system: Z-LPY-pNA; test: Hydrolysis of paranitroanilide-derivatized substrate Z-LPY-pNA; type: biochemical; conditions: five-fold increased enzyme concentrations (5 μg/ml) and longer incubation times
Method: FIG. 4A and FIG. 4B are representative graphs of the hydrolysis of the substrates: Suc-AAPF-pNA (SEQ ID NO: 4), Z-YPQ-pNA, and Z-LPY-pNA, each at 200 μM, by Rmep and subtilisin A, respectively, each at 1 μg/ml.
FIG. 4C show a representative graph of the hydrolysis of the substrate, LPY, by Rmep and subtilisin A at 5 μg/ml and extended incubation times.
Hydrolysis of paranitroanilide-derivatized substrates—Paranitroanilide (pNA)-derivatized tripeptide substrates were chemically synthesized at >90% purity (21st Century Biochemicals, Marlborough, Mass.). The substrates obtained were Z-YPQ-pNA, Z-QQP-pNA, Z-LPY-pNA, Z-PFP-pNA, Z-PPF-pNA, where Z=benzyloxycarbonyl, Y=tyrosine, P=proline, Q=glutamine, L=leucine, and F=phenylalanine Suc-AAPF-pNA (SEQ ID NO: 4) was obtained from Sigma, where Suc=N-succinyl and A=alanine. The peptides were dissolved in 75-100% DMSO at 10 mM, and were used at a final concentration of 200 μM in 50 mM TrisHCl pH 8.0. Purified Rothia enzyme or subtilisin A from Bacillus licheniformis (Sigma) were tested at final concentrations of 1 μg/ml. […] Substrate hydrolysis was monitored for 10 h at 405 nm using a Genios microtiter plate reader (Tecan, Männedorf, Switzerland) in the kinetic mode at 37° C.

[2] = system: Z-QQP-pNA; test: Hydrolysis of paranitroanilide-derivatized substrate Z-QQP-pNA; type: biochemical; conditions: substrate 200 μM, pH 8.0 (data not shown)
Method: (§1) Hydrolysis of paranitroanilide-derivatized substrates—Paranitroanilide (pNA)-derivatized tripeptide substrates were chemically synthesized at >90% purity (21st Century Biochemicals, Marlborough, Mass.). The substrates obtained were Z-YPQ-pNA, Z-QQP-pNA, Z-LPY-pNA, Z-PFP-pNA, Z-PPF-pNA, where Z=benzyloxycarbonyl, Y=tyrosine, P=proline, Q=glutamine, L=leucine, and F=phenylalanine Suc-AAPF-pNA (SEQ ID NO: 4) was obtained from Sigma, where Suc=N-succinyl and A=alanine. The peptides were dissolved in 75-100% DMSO at 10 mM, and were used at a final concentration of 200 μM in 50 mM TrisHCl pH 8.0. Purified Rothia enzyme or subtilisin A from Bacillus licheniformis (Sigma) were tested at final concentrations of 1 μg/ml. Some experiments were conducted in the presence of inhibitors 4-(2-Aminoethyl) benzenesulfonyl fluoride (AEBSF), Aprotinin, E-64, EDTA, phenylmethanesulfonyl fluoride (PMSF) and Eglin C, which were tested at final concentrations of 10 mM, 0.08 mM, 0.1 mM, 1.5 mM, 1 mM, and 0.06-1.2 μM, respectively. Enzymes were preincubated with the inhibitors for 20 min before adding Suc-AAPF-pNA (SEQ ID NO: 4). Substrate hydrolysis was monitored for 10 h at 405 nm using a Genios microtiter plate reader (Tecan, Männedorf, Switzerland) in the kinetic mode at 37° C.

[3] = system: Z-PPF-pNA; test: Hydrolysis of paranitroanilide-derivatized substrate Z-PPF-pNA; type: biochemical; conditions: fifty-fold increased enzyme concentrations (data not shown)
Method: as §1

[4] = system: mixed gliadins; test: Degradation of mixed gliadins (SDS-PAGE); type: biochemical, wheat; conditions: gliadins 250 μg/ml, enzyme 57 μg/ml
Method: FIG. 5A is a representative SDS-PAGE gel of non-digested gliadins (control) and Rmep-treated gliadins. Gliadins (250 μg/ml) in 50 mM Tris/HCl pH 8.0 were incubated with Rmep at 57 μg/ml. After 0, 15 min, 30 min and 2 h incubation 100 μl aliquots were removed, boiled and analyzed by SDS-PAGE and stained with COOMASSIE Brilliant Blue. The bold arrow (left) points to the position of the major band in the gliadin preparation; the thin arrow (right) to the 125 kDa band in the Rmep preparation, and the dotted arrows (right) to the gliadin degradation fragments.
FIG. 6A is a representative SDS-PAGE gel of non-digested gliadins (control) and subtilisin A-treated gliadins. Gliadins (250 μg/ml) in 50 mM Tris/HCl pH 8.0 were incubated with subtilisin A at 57 μg/ml. Experiments were conducted as described in the legend of FIG. 5 with subtilisin A instead of Rmep.
FIG. 8A is a representative SDS-PAGE gel of non-digested gliadins (control) and NattoK-treated gliadins. Mixed gliadins (G, 250 μg/ml) were incubated with NattoK (57 μg/ml) for 0, 15, 30 and 120 min. Left four lanes: controls without enzyme or gliadins, respectively, each at t=0 and 120 min. Arrow points to the major components in the gliadin mixture represented by α and γ-gliadins containing most of the immunogenic epitopes.
(§2) Degradation of mixed gliadins and the 33-mer peptide—Mixed gliadins were obtained from Sigma. A synthetic highly immunogenic α-gliadin derived 33-mer peptide (26) was synthesized at a purity of >90% (21st Century Biochemicals). Mixed gliadins or the 33-mer peptide (each at final concentration 250 μg/ml) were incubated with Rmep or subtilisin A (each at 57 μg/ml) in 50 mM TrisHCl, pH 8.0. After t=0, 15 min, 30 min, and 2 h, 100 μl sample aliquots were removed and boiled. Gliadin degradation was assessed by 4-12% SDS-PAGE followed by Coomassie staining, and 33-mer degradation was determined by RP-HPLC.

[5] = system: α-gliadin derived 33-mer peptide; test: Degradation of the 33-mer peptide (RP-HPLC); type: biochemical; conditions: 33-mer 250 μg/ml, enzyme 57 μg/ml
Method: FIG. 8D is a representative chromatogram of the RP-HPLC analysis of the degradation of the gliadin-derived 33-mer (250 μg/ml) incubated for 0, 15, 30 and 120 min with NattoK 57 μg/ml).
as §2
Reversed-phase high performance liquid chromatography (RP-HPLC)—Separation of the 33-mer peptide and its fragments was achieved by RP-HPLC, using buffer A (0.1% trifluoroacetic acid) and buffer B (0.1% trifluoroacetic acid in 80% acetonitrile) at a gradient of 0-55% buffer B over 75 min time interval. The equipment used was an HPLC Model 715 (Gilson, Middleton, Wis.) and a C-18 column (TSK-GEL […], ODS-120T, TOSOHaas, Montgomeryville, Pa.) (22, 25).

[6] = system: R5 epitopes (QQPFP and related pentapeptides) in mixed gliadins; test: R5 ELISA, gluten epitope elimination in gliadin digests; type: biochemical; conditions: gliadins 250 μg/ml, enzyme 57 μg/ml
Method: FIG. 8E and FIG. 8F show the assessment of the survival of epitopes in the gliadin-NattoK degradation mixture employing the R5 ELISA (FIG. 8E) or G12 ELISA (FIG. 8F) assays. Epitope abolishment in Mixed gliadins (250 μg/ml) were incubated with NattoK (57 μg/ml) for 0, 15, 30 and 120 min and then assayed by the R5 ELISA or G12 ELISA.
R5 and G12 ELISA assays—Gluten epitope elimination in the gliadin-Rmep and gliadin-subtilisin A digests was assessed using two sandwich ELISA assays employing the R5 monoclonal antibody (RIDASCREEN Gliadin, R-Biopharm, Darmstadt, Germany) or the G12 monoclonal antibody (AgraQuant® ELISA Gluten G12, Romer labs, Union, Mo.). To prevent high background values, the R5 plate wells were blocked with 1% skim milk in PBS prior to incubation with the samples. The assays were performed according to the manufacturers' instructions and as described (21, 24).
To further investigate this, the time courses of degradation of mixed gliadins and the highly immunogenic 33-mer α-gliadin peptide were determined. Furthermore, epitope elimination was monitored by two ELISA assays employing the R5 antibody recognizing QQPFP (SEQ ID NO: 40) and related pentapeptides (27, 28) and the G12 antibody recognizing QPQLPY (SEQ ID NO: 22) contained in the 33-mer peptide (29, 30). Data obtained with Rmep are shown in FIG. 5, and with subtilisin A in FIG. 6.

Molecule	hydrolysis of Z-LPY-pNA [1]	hydrolysis of Z-QQP-pNA [2]	hydrolysis of Z-PPF-pNA [3]	incubation time within which mixed gliadins were degraded ([4]; 50 mM TrisHCl pH 8.0) [min]	incubation time within which 33-mer peptide degradation was completed ([5]; pH 8.0) [min]	R5 epitopes eliminated after 15 min ([6]; 15 min)	R5 epitope elimination (reduction in antibody binding) at t=0 [6] [%]	degradation of mixed gliadins in the t=0 sample ([4]; pH 8.0, t=0)	33-mer peptide degradation after 2 h of incubation ([5]; 2 h) [%]	R5 epitope elimination within 15 min of incubation ([6]; 15 min) [%]
Rmep: DEAE pooled fraction F2 of R. mucilaginosa ATCC 25296 extract with highest gluten-degrading enzyme activity; contains subtilisins C6R5V9_9MICC and C6R5W1_9MICC	could be demonstrated	not hydrolyzed	not	≤ 15	≤ 30	virtually all	46	–	–	–
subtilisin A: subtilisin A from Bacillus licheniformis (Sigma) (protein, listed as Bacillus licheniformis) MMRKKSFWLGMLTAFMLVFTMAFSDSASAAQPAKNVEKDYIVGFKSGVKTASVKKDIIKESGGKVDKQFRIINAAKAKLDKEALKEVKNDPDVAYVEEDHVAHALAQTVPYGIPLIKADKVQAQGFKGANVKVAVLDTGIQASHPDLNVVGGASFVAGEAYNTDGNGHGTHVAGTVAALDNTTGVLGVAPSVSLYAVKVLNSSGSGTYSGIVSGIEWATTNGMDVINMSLGGPSGSTAMKQAVDNAYARGVVVVAAAGNSGSSGNTNTIGYPAKYDSVIAVGAVDSNSNRASFSSVGAELEVMAPGAGVYSTYPTSTYATLNGTSMASPHVAGAAALILSKHPNLSASQVRNRLSSTATYLGSSFYYGKGLINVEAAAQ	could be demonstrated	not hydrolyzed	hydrolyzed	–	–	–	90	near complete degradation	74	100
